Where two headings read alike, the source gives them in different places.
Experiments:
[1] = molecular target: T1, Porcine pancreatic lipase, type II (Sus scrofa, UniProt P00591); test: Pancreatic lipase inhibition assay (spectrophotometric, p-NPP substrate); assay type: biochemical
T1 construct: purchased Merck Millipore / Sigma-Aldrich L-3126
T1 sequence (P00591 1-450): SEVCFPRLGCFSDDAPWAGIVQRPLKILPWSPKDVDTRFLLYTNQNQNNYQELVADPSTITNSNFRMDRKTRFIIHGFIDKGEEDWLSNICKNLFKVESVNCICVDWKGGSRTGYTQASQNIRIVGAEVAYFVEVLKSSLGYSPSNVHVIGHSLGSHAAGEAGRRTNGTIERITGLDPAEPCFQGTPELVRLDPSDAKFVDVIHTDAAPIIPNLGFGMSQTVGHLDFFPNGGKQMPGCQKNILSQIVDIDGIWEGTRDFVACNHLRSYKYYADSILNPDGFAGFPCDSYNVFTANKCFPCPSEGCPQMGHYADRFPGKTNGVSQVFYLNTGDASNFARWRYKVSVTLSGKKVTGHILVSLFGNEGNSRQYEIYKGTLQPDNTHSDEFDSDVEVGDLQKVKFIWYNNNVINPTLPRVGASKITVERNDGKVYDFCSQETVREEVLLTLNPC
Description: Following the experimental conditions described in the previous study [28], the assay was performed as follows: each sample solution, composed of 50 mM Tris-HCl buffer at pH 8.0, tested compound, and 10 mg/ml pancreatic lipase enzyme, was sequentially added. The resulting mixture was thoroughly mixed and incubated for 10 minutes at 37°C. Subsequently, the p-NPP substrate solution was added and mixed well. The mixture was then further incubated for 7 minutes at 37°C. The absorbance of the solution was measured at 405 nm. For the control solution, the same procedure was followed, replacing the tested compound with 10% DMSO. The blank solution was prepared with no enzyme added.
The percentage of pancreatic lipase inhibition (I%) was calculated using the following equation:(1) I%=∆A0−∆A/A0×100.
Here, ∆A0 represents the absorbance difference between the control and the blank, ∆A represents the absorbance difference between the sample and the blank, and A0 represents the absorbance of the control.
A linear regression equation was constructed to establish the correlation between the logarithm of the concentration (µM) of the tested substances and the percentage of pancreatic lipase inhibition. From this equation, the IC50 value, which indicates the concentration of the compound required for 50% inhibition, was determined.

[2] = molecular target: T1, Porcine pancreatic lipase, type II; test: Enzymatic inhibition kinetic analysis (Michealis–Menten and Lineweaver–Burk plots); assay type: biochemical; details: for Mode of enzyme inhibition: Michealis–Menten and Lineweaver–Burk plots; for Vmax in the presence of inhibitor: p-NPP 12.5-200 μM, from Michealis–Menten plots
Description: Ten semisynthetic flavonoid derivatives, 2 flavanones and 8 flavones (Figure 1), reported in the previous works were used in this study.
The substrate p-NPP was examined at five distinct concentrations ranging from 12.5 μM to 200 μM. The flavonoid derivative was assessed for its lipase inhibition capacity over time at concentrations of 15 μM and 30 μM. Simultaneously, a negative control sample without the inhibitor was utilized for comparison. […] Inhibition constants (Ki) and maximum velocity (Vmax) were derived from the Michealis–Menten plots, and the mode of enzyme inhibition was elucidated through the Lineweaver–Burk plots. All parameters and graphical representations were calculated and generated using GraphPad Prism 8.4.3 software.

[3] = parameters: method as in PMID 11261530; details: dietary contexts, clinical use; cited from earlier work
[4] = p-NPP substrate, 50 mM Tris-HCl pH 8.0, 37°C, absorbance 405 nm, read-out: IC50 for pancreatic lipase

| IC50 [1, 4] | SMILES | IC50 [1] | other results |
| --- | --- | --- | --- |
| – | CCC(=O)Oc1cc2oc(-c3ccccc3)cc(=O)c2c(OC(=O)CC)c1OC(=O)CC [F07] | > 500 µM | – |
| – | CCOc1cc(O)c2c(=O)cc(-c3ccc(OC)c(OCC)c3)oc2c1 [F10] | > 500 µM | – |
| – | C=CCOc1cc2oc(-c3ccccc3)cc(=O)c2c(O)c1OCC=C [F05] | 341 ± 24.1 µM | – |
| – | COc1cc(OC)c2c(=O)cc(-c3ccc(OC)c(OC)c3)oc2c1 [F08] | 270 ± 14.6 µM | – |
| – | CCCCCCCCCCC[C@@H](C[C@@H]1OC(=O)[C@H]1CCCCCC)OC(=O)[C@H](CC(C)C)NC=O [Orlistat, reference compound] | – | Mode of enzyme inhibition [2]: competitive; Vmax in the presence of inhibitor [2]: 0.03295 ΔA·min^−1; Reduction of fat absorption [3]: approximately 30% |
| > 500 µM | COc1cc2oc(-c3ccccc3)cc(=O)c2c(O)c1OC [F03] | – | – |
| 17.7 ± 1.43 µM | COc1cc(O)c2c(c1)OC(c1ccc(O)cc1)CC2=O (stereo not shown) [F01, 5-hydroxy-2-(4-hydroxyphenyl)-7-methoxychroman-4-one] | – | Mode of enzyme inhibition [2]: competitive; Vmax in the presence of inhibitor [2]: 0.03272 ΔA·min^−1; Ki ([2]; read-out: Inhibition constant (Ki)): 7.16 µM |
| 76.2 ± 3.22 µM | COc1ccc(C2CC(=O)c3c(O)cc(OC)cc3O2)cc1 (stereo not shown) [F02] | – | – |
| – | CC(=O)Oc1cc2oc(-c3ccccc3)cc(=O)c2c(OC(C)=O)c1OC(C)=O [F06] | > 500 µM | – |
| 465 ± 11.8 µM | COc1cc(O)c2c(=O)cc(-c3ccc(OC)c(OC)c3)oc2c1 [F09] | – | – |
| – | CCOc1cc2oc(-c3ccccc3)cc(=O)c2c(O)c1OCC [F04] | > 500 µM | – |
